In PMC7659979, “Discovery and Evaluation of Enantiopure 9H-pyrimido[4,5-b]indoles as Nanomolar GSK-3β Inhibitors with Improved Metabolic Stability” (International Journal of Molecular Sciences, 2020):

Tested on: SH-SY5Y cells
Assay: Neuroprotective activity toward OAβ1-42 (MTT assay)
Format: cell-based, human
Conditions: 5 μM, concomitant treatment with OAβ1−42 10 μM
Description: Next, we investigated the neuroprotective effects of (R)-28 in SH-SY5Y cells against the neurotoxicity induced by neurotoxins. These included hydrogen peroxide (H2O2, 100 μM) and amyloid-β 1–42 oligomers (OAβ1−42, 10 μM), that mimic general oxidative stress and Alzheimer’s disease (AD), respectively. […] Still, these neuroprotective effects against the oxidative stress underline the potential usefulness of inhibitor (R)-28 in the AD therapeutic area.
5. Investigation of Cellular GSK-3α/β Inhibition by (R)-28 and Its Neuroprotective Effects […]
SH-SY5Y cells were seeded in a 96-well plate at 2 × 10^4 cells/well, incubated for 24 h and then treated with various concentrations (1.25–40 µM) of (R)-28 for 24 h. Cell viability, in terms of mitochondrial activity, was evaluated by MTT assay, as previously described. […]
SH-SY5Y cells were seeded in a 96-well plate at 2 × 10^4 cells/well, incubated for 24 h and subsequently treated with (R)-28 (5 µM) and H 2O2 (100 µM) for 1 h. […] The neuroprotective activity was measured by using the MTT assay as previously described . Data are expressed as a percentage of neurotoxicity versus untreated cells. […]
SH-SY5Y cells were seeded in a 96-well plate at 3 × 10^4 cells/well, incubated for 24 h, and subsequently treated with (R)-28 (5 µM) and OAβ 1-42 (10 µM) for 4 h. The neuroprotective activity was measured by using the MTT assay as previously described. […]

With `CCC(=O)N1CCC[C@@H](N(C)c2ncnc3[nH]c4cc(Br)ccc4c23)C1` [Compound (R)-28, (R)-1-(3-((7-bromo-9H-pyrimido[4,5-b]indol-4-yl)(methyl)amino)piperidin-1-yl)propan-1-one] the “neurotoxicity elicited by OAβ1−42” value was “not”.
